The text below walks through data of patent publication US9661853B2, “Molecules having pesticidal utility, and intermediates, compositions, and processes, related thereto” (Dow AgroSciences LLC, priority 2015, dated 2017).

In test [1] the test system is Cabbage Looper (Trichoplusia ni, TRIPNI). Description: Bioassay on Cabbage Looper (CL), 128-well diet tray assay. The format is in vivo. The following applies: 168 h, 50 μg/cm^2 on artificial diet, second instar larvae, 25° C., five to seven days, average of eight wells, read-out: CL % Control (or Mortality) rating. As for the experimental part:
(§1) Bioassays on Beet Armyworm (Spodoptera exigua, LAPHEG) (“BAW”) and Cabbage Looper (Trichoplusia ni, TRIPNI) (“CL”)
(§2) Certain molecules disclosed in this document were tested against BAW and CL using procedures described in the following examples. In the reporting of the results, the “BAW & CL Rating Table” was used (See Table Section).
Bioassays on CL were conducted using a 128-well diet tray assay. One to five second instar CL larvae were placed in each well (3 mL) of the diet tray that had been previously filled with 1 mL of artificial diet to which 50 μg/cm^2 of the test molecule (dissolved in 50 μL of 90:10 acetone-water mixture) had been applied (to each of eight wells) and then allowed to dry. Trays were covered with a clear self-adhesive cover, vented to allow gas exchange, and held at 25° C., 14:10 light-dark for five to seven days. Percent mortality was recorded for the larvae in each well; activity in the eight wells was then averaged. The results are indicated in the table entitled “Table ABC: Biological Results” (See Table Section).

In test [2] the test system is Beet Armyworm (Spodoptera exigua, LAPHEG). The test is described as follows: Bioassay on Beet Armyworm (BAW), 128-well diet tray assay. The class given is in vivo. The following applies: 168 h, 50 μg/cm^2 on artificial diet, second instar larvae, 25° C., five to seven days, average of eight wells, read-out: BAW % Control (or Mortality) rating. As for the experimental part: as §1, §2
Bioassays on BAW were conducted using a 128-well diet tray assay. One to five second instar BAW larvae were placed in each well (3 mL) of the diet tray that had been previously filled with 1 mL of artificial diet to which 50 μg/cm^2 of the test molecule (dissolved in 50 μL of 90:10 acetone-water mixture) had been applied (to each of eight wells) and then allowed to dry. Trays were covered with a clear self-adhesive cover, vented to allow gas exchange, and held at 25° C., 14:10 light-dark for five to seven days. Percent mortality was recorded for the larvae in each well; activity in the eight wells was then averaged. The results are indicated in the table entitled “Table ABC: Biological Results” (See Table Section).

Consider `Cc1ccc(C(C)C)c(N2C(=O)CS/C2=N\C(=O)Nc2ccc(N(C)C(=O)c3ncn(-c4ccc(OC(F)(F)F)cc4)n3)cc2)c1` [F27, (Z)—N-(4-(3-(3-(2-Isopropyl-5-methylphenyl)-4-oxothiazolidin-2-ylidene)ureido)phenyl)-N-methyl-1-(4-(trifluoromethoxy)phenyl)-1H-1,2,4-triazole-3-carboxamide], for which the mortality at 50 µg/cm2 in test [1] and in test [2] was 50 to 100% each time.

Consider `Cc1ccc(C(C)C)c(N2C(=O)CS/C2=N\C(=O)Nc2ccc(NCc3ncn(-c4ccc(OC(F)(F)F)cc4)n3)cc2)c1` [F28, (Z)-1-(3-(2-isopropyl-5-methylphenyl)-4-oxothiazolidin-2-ylidene)-3-(4-(((1-(4-(trifluoromethoxy)phenyl)-1H-1,2,4-triazol-3-yl)methyl)amino)phenyl)urea], for which the mortality at 50 µg/cm2 in test [1] and in test [2] was 50 to 100% in each case.

As for `CCCc1ccc(C)cc1N1C(=O)CS/C1=N\C(=O)Nc1ccc(NCc2ncn(-c3ccc(OC(F)(F)F)cc3)n2)cc1` [F29, (Z)-1-(3-(5-Methyl-2-propylphenyl)-4-oxothiazolidin-2-ylidene)-3-(4-(((1-(4-(trifluoromethoxy)phenyl)-1H-1,2,4-triazol-3-yl)methyl)amino)phenyl)urea], the mortality at 50 µg/cm2 in test [1] and in test [2] was 50 to 100% each time.

With `COCc1ccc(C)cc1N1C(=O)CS/C1=N\C(=O)Nc1ccc(NCc2ncn(-c3ccc(OC(F)(F)F)cc3)n2)cc1` [F30, (Z)-1-(3-(2-(Methoxymethyl)-5-methylphenyl)-4-oxothiazolidin-2-ylidene)-3-(4-(((1-(4-(trifluoromethoxy)phenyl)-1H-1,2,4-triazol-3-yl)methyl)amino)phenyl)urea], the mortality at 50 µg/cm2 in test [1] and in test [2] was 50 to 100% each time.

As for `Cc1ccc(C(C)C)c(N2C(=O)CS/C2=N\C(=O)Nc2ccc(NCc3ncn(-c4ccc(OC(F)(F)F)cc4)n3)cc2F)c1` [F31, (Z)-1-(2-Fluoro-4-(((1-(4-(trifluoromethoxy)phenyl)-1H-1,2,4-triazol-3-yl)methyl)amino)phenyl)-3-(3-(2-isopropyl-5-methylphenyl)-4-oxothiazolidin-2-ylidene)urea], the mortality at 50 µg/cm2 in test [1] and in test [2] was 50 to 100% in each case.

`CCCc1ccc(C)cc1N1C(=O)CS/C1=N\C(=O)Nc1ccc(NCc2ncn(-c3ccc(OC(F)(F)F)cc3)n2)cc1F` [F32, (Z)-1-(2-Fluoro-4-(((1-(4-(trifluoromethoxy)phenyl)-1H-1,2,4-triazol-3-yl)methyl)amino)phenyl)-3-(3-(5-methyl-2-propylphenyl)-4-oxothiazolidin-2-ylidene)urea]: the mortality at 50 µg/cm2 in test [1] and in test [2] was 50 to 100% in each case.

Take `COCc1ccc(C)cc1N1C(=O)CS/C1=N\C(=O)Nc1ccc(NCc2ncn(-c3ccc(OC(F)(F)F)cc3)n2)cc1F` [F33, (Z)-1-(2-Fluoro-4-(((1-(4-(trifluoromethoxy)phenyl)-1H-1,2,4-triazol-3-yl)methyl)amino)phenyl)-3-(3-(2-(methoxymethyl)-5-methylphenyl)-4-oxothiazolidin-2-ylidene)urea]: the mortality at 50 µg/cm2 in test [1] and in test [2] was 50 to 100% in each case.

Consider `Cc1ccc(C(C)C)c(N2C(=O)CS/C2=N\C(=O)Nc2ccc(NCc3ncn(-c4ccc(OC(F)(F)F)cc4)n3)c(F)c2)c1` [F34, (Z)-1-(3-Fluoro-4-(((1-(4-(trifluoromethoxy)phenyl)-1H-1,2,4-triazol-3-yl)methyl)amino)phenyl)-3-(3-(2-isopropyl-5-methylphenyl)-4-oxothiazolidin-2-ylidene)urea], for which the mortality at 50 µg/cm2 in test [1] and in test [2] was 50 to 100% in each case.

As to `CCCc1ccc(C)cc1N1C(=O)CS/C1=N\C(=O)Nc1ccc(NCc2ncn(-c3ccc(OC(F)(F)F)cc3)n2)c(F)c1` [F35, (Z)-1-(3-Fluoro-4-(((1-(4-(trifluoromethoxy)phenyl)-1H-1,2,4-triazol-3-yl)methyl)amino)phenyl)-3-(3-(5-methyl-2-propylphenyl)-4-oxothiazolidin-2-ylidene)urea], the mortality at 50 µg/cm2 in test [1] and in test [2] was 50 to 100% throughout.

Turning to `COCc1ccc(C)cc1N1C(=O)CS/C1=N\C(=O)Nc1ccc(NCc2ncn(-c3ccc(OC(F)(F)F)cc3)n2)c(F)c1` [F36, (Z)-1-(3-Fluoro-4-(((1-(4-(trifluoromethoxy)phenyl)-1H-1,2,4-triazol-3-yl)methyl)amino)phenyl)-3-(3-(2-(methoxymethyl)-5-methylphenyl)-4-oxothiazolidin-2-ylidene)urea], the mortality at 50 µg/cm2 in test [1] and in test [2] was 50 to 100% throughout.

Turning to `COc1cc(NC(=O)/N=C2\SCC(=O)N2c2cc(C)ccc2C(C)C)ccc1NCc1ncn(-c2ccc(OC(F)(F)F)cc2)n1` [F37, (Z)-1-(3-(2-Isopropyl-5-methylphenyl)-4-oxothiazolidin-2-ylidene)-3-(3-methoxy-4-(((1-(4-(trifluoromethoxy)phenyl)-1H-1,2,4-triazol-3-yl)methyl)amino)phenyl)urea], the mortality at 50 µg/cm2 in test [1] and in test [2] was 50 to 100% throughout.

`CCCc1ccc(C)cc1N1C(=O)CS/C1=N\C(=O)Nc1ccc(NCc2ncn(-c3ccc(OC(F)(F)F)cc3)n2)c(OC)c1` [F38, (Z)-1-(3-Methoxy-4-(((1-(4-(trifluoromethoxy)phenyl)-1H-1,2,4-triazol-3-yl)methyl)amino)phenyl)-3-(3-(5-methyl-2-propylphenyl)-4-oxothiazolidin-2-ylidene)urea]: the mortality at 50 µg/cm2 in test [1] and in test [2] was 50 to 100% throughout.

Turning to `COCc1ccc(C)cc1N1C(=O)CS/C1=N\C(=O)Nc1ccc(NCc2ncn(-c3ccc(OC(F)(F)F)cc3)n2)c(OC)c1` [F39, (Z)-1-(3-Methoxy-4-(((1-(4-(trifluoromethoxy)phenyl)-1H-1,2,4-triazol-3-yl)methyl)amino)phenyl)-3-(3-(2-(methoxymethyl)-5-methylphenyl)-4-oxothiazolidin-2-ylidene)urea], the mortality at 50 µg/cm2 in test [1] and in test [2] was 50 to 100% in each case.

Turning to `Cc1ccc(C(C)C)c(N2C(=O)CS/C2=N\C(=O)Nc2ccc(NCc3ncn(-c4ccc(OC(F)(F)F)cc4)n3)cc2Cl)c1` [F40, (Z)-1-(2-Chloro-4-(((1-(4-(trifluoromethoxy)phenyl)-1H-1,2,4-triazol-3-yl)methyl)amino)phenyl)-3-(3-(2-isopropyl-5-methylphenyl)-4-oxothiazolidin-2-ylidene)urea], the mortality at 50 µg/cm2 in test [1] and in test [2] was 50 to 100% throughout.

As to `CCCc1ccc(C)cc1N1C(=O)CS/C1=N\C(=O)Nc1ccc(NCc2ncn(-c3ccc(OC(F)(F)F)cc3)n2)cc1Cl` [F41, (Z)-1-(2-Chloro-4-(((1-(4-(trifluoromethoxy)phenyl)-1H-1,2,4-triazol-3-yl)methyl)amino)phenyl)-3-(3-(5-methyl-2-propylphenyl)-4-oxothiazolidin-2-ylidene)urea], the mortality at 50 µg/cm2 in test [1] and in test [2] was 50 to 100% each time.

In the case of `COCc1ccc(C)cc1N1C(=O)CS/C1=N\C(=O)Nc1ccc(NCc2ncn(-c3ccc(OC(F)(F)F)cc3)n2)cc1Cl` [F42, (Z)-1-(2-Chloro-4-(((1-(4-(trifluoromethoxy)phenyl)-1H-1,2,4-triazol-3-yl)methyl)amino)phenyl)-3-(3-(2-(methoxymethyl)-5-methylphenyl)-4-oxothiazolidin-2-ylidene)urea], the mortality at 50 µg/cm2 in test [1] and in test [2] was 50 to 100% each time.

Regarding `Cc1ccc(C(C)C)c(N2C(=O)CS/C2=N\C(=O)Nc2ccc(NCc3ncn(-c4ccc(OC(F)(F)F)cc4)n3)c(Cl)c2)c1` [F43, (Z)-1-(3-Chloro-4-(((1-(4-(trifluoromethoxy)phenyl)-1H-1,2,4-triazol-3-yl)methyl)amino)phenyl)-3-(3-(2-isopropyl-5-methylphenyl)-4-oxothiazolidin-2-ylidene)urea], the mortality at 50 µg/cm2 in test [1] and in test [2] was 50 to 100% each time.

On to `CCCc1ccc(C)cc1N1C(=O)CS/C1=N\C(=O)Nc1ccc(NCc2ncn(-c3ccc(OC(F)(F)F)cc3)n2)c(Cl)c1` [F44, (Z)-1-(3-Chloro-4-(((1-(4-(trifluoromethoxy)phenyl)-1H-1,2,4-triazol-3-yl)methyl)amino)phenyl)-3-(3-(5-methyl-2-propylphenyl)-4-oxothiazolidin-2-ylidene)urea], for which the mortality at 50 µg/cm2 in test [1] and in test [2] was 50 to 100% in each case.

As for `Cc1ccc(C(C)C)c(N2C(=O)CS/C2=N\C(=O)Nc2ccc(NCc3ncn(-c4ccc(OC(F)(F)F)cc4)n3)nc2)c1` [F46, (Z)-1-(3-(2-isopropyl-5-methylphenyl)-4-oxothiazolidin-2-ylidene)-3-(6-(((1-(4-(trifluoromethoxy)phenyl)-1H-1,2,4-triazol-3-yl)methyl)amino)pyridin-3-yl)urea], the mortality at 50 µg/cm2 in test [1] and in test [2] was 50 to 100% each time.
